Test results as given in patent US20250221410A1, “SUBSTITUTED 2-C-AZINES AND SALTS THEREOF, AND USE THEREOF AS HERBICIDAL ACTIVE SUBSTANCES” (BAYER AKTIENGESELLSCHAFT, priority 2022, published 2025).

Experiments:
Format in all cases: in vivo
[1] = tested on: AMARE: Amaranthus retroflexus; test: Post-emergence herbicidal efficacy at 1280 g/ha, AMARE; details: rated visually after about 3 weeks vs untreated controls, 100% = plants have died, 0% = like control plants
Outline: (§1)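 Read-out is visual percent activity relative to untreated controls (100% = plants died, 0% = no effect), scored about 3 weeks after treatment. Application was post-emergence at the one-leaf stage in the greenhouse, as WP or EC in water with 0.5% additive at 600 L/ha.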

[2] = tested on: SETVI: Setaria viridis; test: Post-emergence herbicidal efficacy at 1280 g/ha, SETVI; details: visual rating about 3 weeks after treatment vs untreated controls
Experimental: (§2) Seeds of mono- and dicotyledonous weed plants were placed in plastic pots in sandy loam soil (doubly sown with in each case one species of mono- or dicotyledonous weed plants per pot), covered with soil and cultivated in a greenhouse under controlled growth conditions. 2 to 3 weeks after sowing, the test plants were treated at the one-leaf stage. The compounds of the invention, formulated in the form of wettable powders (WP) or as emulsion concentrates (EC), were applied to the green parts of the plants as aqueous suspension or emulsion with addition of 0.5% additive at a water application rate equivalent to 600 litres per hectare. After the test plants had been kept in the greenhouse under optimum growth conditions for about 3 weeks, the activity of the preparations was rated visually in comparison to untreated controls. For example, 100% activity=the plants have died, 0% activity=like control plants. Tables A1 to A12 below show the effects of selected compounds of the general formula (I) according to Table 1 on various harmful plants and at an application rate corresponding to 1280 g/ha, which were obtained by the trial procedure specified above.

[3] = tested on: ECHCG: Echinochloa crus-galli; test: Post-emergence herbicidal efficacy at 1280 g/ha, ECHCG; details: rated visually after about 3 weeks vs untreated controls, 100% = plants have died, 0% = like control plants
Experimental: as §2

[4] = tested on: ABUTH: Abutilon theophrasti; test: Pre-emergence herbicide efficacy at 1280 g/ha, ABUTH; details: visual scoring after about 3 weeks vs untreated controls
Outline: (§3)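 Pre-emergence pot test in sandy loam: WP or EC formulations sprayed onto covering soil after sowing, as aqueous suspension/emulsion with 0.5% additive at 600 L/ha water. Plants grown in greenhouse; after about 3 weeks, efficacy scored visually as % versus untreated controls (100% = dead, 0% = like control).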

[5] = tested on: POAAN: Poa annua; test: Pre-emergence herbicide efficacy at 1280 g/ha, POAAN; details: visual scoring after about 3 weeks vs untreated controls
Outline: as §3

[6] = tested on: ABUTH: Abutilon theophrasti; test: Post-emergence herbicidal efficacy at 1280 g/ha, ABUTH; details: rated visually after about 3 weeks vs untreated controls, 100% = plants have died, 0% = like control plants
Outline: as §1

[7] = tested on: KCHSC: Kochia scoparia; test: Post-emergence herbicidal efficacy at 1280 g/ha, KCHSC; details: visual rating about 3 weeks after treatment vs untreated controls
Outline: as §1

[8] = tested on: VERPE: Veronica persica; test: Post-emergence herbicidal efficacy at 1280 g/ha, VERPE; details: visual rating about 3 weeks after treatment vs untreated controls
Outline: as §1

[9] = tested on: STEME: Stellaria media; test: Post-emergence herbicidal efficacy at 1280 g/ha, STEME; details: visual rating about 3 weeks after treatment vs untreated controls
Outline: as §1

[10] = tested on: DIGSA: Digitaria sanguinalis; test: Pre-emergence herbicide efficacy at 1280 g/ha, DIGSA; details: visual scoring after about 3 weeks vs untreated controls
Outline: as §3

[11] = tested on: AMARE: Amaranthus retroflexus; test: Pre-emergence herbicide efficacy at 1280 g/ha, AMARE; details: visual scoring after about 3 weeks vs untreated controls
Outline: as §3

[12] = tested on: STEME: Stellaria media; test: Pre-emergence herbicide efficacy at 1280 g/ha, STEME; details: visual scoring vs untreated controls
Outline: as §3

[13] = tested on: ECHCG: Echinochloa crus-galli; test: Pre-emergence herbicide efficacy at 1280 g/ha, ECHCG; details: visual scoring after about 3 weeks vs untreated controls
Outline: as §3

[14] = tested on: POAAN: Poa annua; test: Post-emergence herbicidal efficacy at 1280 g/ha, POAAN; details: visual rating about 3 weeks after treatment vs untreated controls
Outline: as §1

[15] = tested on: DIGSA: Digitaria sanguinalis; test: Post-emergence herbicidal efficacy at 1280 g/ha, DIGSA; details: rated visually after about 3 weeks vs untreated controls, 100% = plants have died, 0% = like control plants
Experimental: as §2

[16] = tested on: SETVI: Setaria viridis; test: Pre-emergence herbicide efficacy at 1280 g/ha, SETVI; details: visual scoring vs untreated controls
Outline: as §3

[17] = tested on: VERPE: Veronica persica; test: Pre-emergence herbicide efficacy at 1280 g/ha, VERPE; details: visual scoring vs untreated controls
Outline: as §3

[18] = tested on: KCHSC: Kochia scoparia; test: Pre-emergence herbicide efficacy at 1280 g/ha, KCHSC; details: visual scoring after about 3 weeks vs untreated controls
Description: Seeds of mono- and dicotyledonous weed plants were placed in plastic pots in sandy loam soil (doubly sown with one species each of mono- or dicotyledonous weed plants per pot) and covered with soil. The compounds of the invention, formulated in the form of wettable powders (WP) or as emulsion concentrates (EC), were then applied to the surface of the covering soil as aqueous suspension or emulsion with addition of 0.5% additive at a water application rate of 600 litres per hectare (converted). After the treatment, the pots were placed in a greenhouse and kept under good growth conditions for the test plants. After about 3 weeks, the efficacy of the preparations was scored visually in comparison with untreated controls as percentages. For example, 100% activity=the plants have died, 0% activity=like control plants. Tables C1 to C12 below show the effects of selected compounds of the general formula (I) according to Table 1 on various harmful plants and at an application rate corresponding to 1280 g/ha, which were obtained by the trial procedure specified above.

| SMILES | Post-emergence efficacy at 1280 g/ha against AMARE in % [1] [%] | Post-emergence efficacy against SETVI [2] [%] | Post-emergence efficacy at 1280 g/ha against ECHCG in % [3] [%] | Pre-emergence efficacy against ABUTH [4] [%] | Pre-emergence efficacy against POAAN [5] [%] | Post-emergence efficacy at 1280 g/ha against ABUTH in % [6] [%] | Post-emergence efficacy against KCHSC [7] [%] | Post-emergence efficacy against VERPE [8] [%] | Post-emergence efficacy against STEME [9] [%] | Pre-emergence efficacy against DIGSA [10] [%] | Pre-emergence efficacy against AMARE [11] [%] | Pre-emergence efficacy against STEME in % [12] [%] | Pre-emergence efficacy against ECHCG [13] [%] | Post-emergence efficacy against POAAN [14] [%] | Post-emergence efficacy at 1280 g/ha against DIGSA in % [15] [%] | Pre-emergence efficacy against SETVI in % [16] [%] | Pre-emergence efficacy against VERPE in % [17] [%] | Pre-emergence efficacy against KCHSC [18] [%] |
| --- | --- | --- | --- | --- | --- | --- | --- | --- | --- | --- | --- | --- | --- | --- | --- | --- | --- | --- |
| Fc1ccc(Cc2ccccc2Cc2ncc(Cl)cn2)cc1 [Example 1-23] | 100 | 90 | 100 | 100 | 90 | 100 | 90 | 100 | 90 | 100 | 100 | 100 | 100 | 100 | 100 | 100 | 100 | 90 |
| Fc1ccc(-c2ccccc2Cc2ncc(Cl)cn2)cc1F [Example 1-26] | 100 | 90 | 90 | 90 | 100 | 100 | 100 | 100 | 100 | 100 | 100 | – | 90 | 90 | 90 | 90 | – | 100 |
| Fc1cnc(Cc2ccccc2-c2ccc(F)c(F)c2)nc1 [Example 1-27] | 100 | 90 | – | 100 | 90 | 90 | 90 | 90 | 90 | 100 | 100 | – | 90 | 90 | 90 | 100 | 100 | 90 |
| Fc1ccc(Oc2c(Br)cccc2Cc2ncc(Cl)cn2)cc1 [Example 1-37] | 100 | – | 100 | – | 90 | 100 | 100 | 100 | 90 | 100 | 100 | 90 | 90 | 100 | 90 | 100 | – | – |
| N#Cc1cccc(Cc2ncc(Cl)cn2)c1Oc1ccc(F)cc1 [Example 1-38] | 100 | 90 | 100 | – | 100 | 100 | 100 | 100 | 100 | 100 | 100 | 100 | 100 | 90 | 90 | 100 | 100 | – |
